These results are taken from patent EP2261258A1, “MCSP-aligned scFv antibody fragments and use of same” (Schuler, Gerold, priority 2009, dated 2010).

The conditions of assay [1]: melanoma patients, cited from earlier work.
In the next assay the test system is AML. The settings on record: Bross et al. 2001; cited from earlier work.
The target of assay [2] is Melanom-assoziiertes Chondroitinsulfat Proteoglykan (MCSP) (human) (UniProt Q6UVK1). Kind of assay: flow cytometry, saturation binding on A2058 melanoma cells, half-maximal saturation concentration. For orientation: A flow cytometer gives signals particle by particle.
The target is the same in assay [3]. Kind of assay: ratio of KD values, flow cytometry on A2058 cells.

Where two headings read alike, the source gives them in different places.

Regarding `CN(C)/N=N/c1[nH]cnc1C(N)=O` [Dacarbazin, Dimethyl-trizeno-imidazol-Carboxamid], the Ansprechraten was roughly 7% in assay [1] (according to newer studies (Avril et al. 2004)) and 10 - 20% in assay [1] (as given in most studies).

For the molecule “GO: gegen CD33 gerichteter humanisierter Antikörper gekoppelt an Calicheamycin”, in the assay with AML, the “Patienten, die ansprechen” value is roughly 30% and the “mittlere rückfallfreie Überlebenszeit” value is recorded as 6,8 Monate.

B1: scFv-Fragment MCSP (scFv)
scFv: MADYKDIVMTQSPASLAVSLGQRATISCRASESVDSYGNSFMHWYQQKPGQPPKLLIYLASNLESGVPARFSGSGSRTDFTLTIDPVEADDAATYYCQQNNEDPLTFGSGTKLETKRGGGGSGGGGSGGGGSGGGGSQVQLKQSGPELVKPGASVKISCKASGYAFSRSWMNWVKQRPGQGLEWIGRIYPGDGDTNYNGKFKGKATLTADKSSSTAYMQVSSLTSVDSAVYFCARGNTVVVPYTMDYWGQGTSVTVPSASGADHHHHHH
As a reminder, the Kd is the concentration at which binding is half-saturated. The low end stands for a tighter complex, the high end for a looser complex. Turning to B1, in assay [2], the Kd turned out to be 23.3 nM. In other words, the double-digit nanomolar range.

B2: scFv-Fragment MCSP HL (scFv)
scFv: MADYKQVKLQQSGPELVKPGASVKISCKASGYAFSRSWMNWVKQRPGQGLEWIGRIYPGDGDTNYNGKFKGKATLTADKSSSTAYMQVSSLTSVDSAVYFCARGNTVVVPYTMDYWGQGTTVTVSSGGGGSGGGGSGGGGSDIELTQSPASLAVSLGQRATISCRASESVDSYGNSFMHWYQQKPGQPPKLLIYLASNLESGVPARFSGSGSRTDFTLTIDPVEADDAATYYCQQNNEDPLTFGGGTKLELKRSASGADHHHHHH
As to B2, the Kd in assay [2] came to 1.65 nM. In addition, in assay [3], the fold improvement of affinity against the original scFv MCSP came to 14 fold.
